Measurements taken from ChEMBL document CHEMBL1212697, “High-content single-cell drug screening with phosphospecific flow cytometry” (Nat Chem Biol, 2008).

What was measured:
[1] = Inhibition of JAK-mediated IL4-induced Stat5 phosphorylation in BALB/c mouse CD11b-int macrophages by Phospho-Flow cytometry
[2] = Inhibition of JAK-mediated IL6-induced Stat1 phosphorylation in BALB/c mouse B cells by Phospho-Flow cytometry; type: cell-based
[3] = Inhibition of JAK-mediated IL10-induced Stat3 phosphorylation in BALB/c mouse B cells by Phospho-Flow cytometry; type: cell-based
[4] = Inhibition of JAK-mediated interferon-gamma-induced Stat1 phosphorylation in BALB/c mouse B cells by Phospho-Flow cytometry; type: cell-based
[5] = Inhibition of JAK-mediated IL6-induced Stat3 phosphorylation in BALB/c mouse B cells by Phospho-Flow cytometry; type: cell-based
[6] = Inhibition of JAK-mediated IL15-induced Stat5 phosphorylation in BALB/c mouse B cells by Phospho-Flow cytometry; type: cell-based
[7] = Inhibition of JAK-mediated IL7-induced Stat5 phosphorylation in BALB/c mouse B cells by Phospho-Flow cytometry; type: cell-based
[8] = Inhibition of JAK-mediated IL4-induced Stat5 phosphorylation in BALB/c mouse B cells by Phospho-Flow cytometry; type: cell-based
[9] = Inhibition of JAK-mediated IL6-induced Stat1 phosphorylation in BALB/c mouse CD4+ T cells by Phospho-Flow cytometry; type: cell-based; conditions: T-cell
[10] = Inhibition of JAK-mediated IL10-induced Stat3 phosphorylation in BALB/c mouse CD4+ T cells by Phospho-Flow cytometry; type: cell-based; conditions: T-cell
[11] = Inhibition of JAK-mediated interferon-gamma-induced Stat1 phosphorylation in BALB/c mouse CD4+ T cells by Phospho-Flow cytometry; type: cell-based; conditions: T-cell
[12] = Inhibition of JAK-mediated IL6-induced Stat3 phosphorylation in BALB/c mouse CD4+ T cells by Phospho-Flow cytometry; type: cell-based; conditions: T-cell
[13] = Inhibition of JAK-mediated IL15-induced Stat5 phosphorylation in BALB/c mouse CD4+ T cells by Phospho-Flow cytometry; type: cell-based; conditions: T-cell
[14] = Inhibition of JAK-mediated IL7-induced Stat5 phosphorylation in BALB/c mouse CD4+ T cells by Phospho-Flow cytometry; type: cell-based; conditions: T-cell
[15] = Inhibition of JAK-mediated IL4-induced Stat6 phosphorylation in BALB/c mouse CD4+ T cells by Phospho-Flow cytometry; type: cell-based; conditions: T-cell
[16] = Inhibition of JAK-mediated IL4-induced Stat5 phosphorylation in BALB/c mouse CD4+ T cells by Phospho-Flow cytometry; type: cell-based; conditions: T-cell
[17] = Inhibition of JAK-mediated IL6-induced Stat1 phosphorylation in BALB/c mouse CD8+ T cells by Phospho-Flow cytometry; type: cell-based; conditions: T-cell
[18] = Inhibition of JAK-mediated IL10-induced Stat3 phosphorylation in BALB/c mouse CD8+ T cells by Phospho-Flow cytometry; type: cell-based; conditions: T-cell
[19] = Inhibition of JAK-mediated interferon-gamma-induced Stat1 phosphorylation in BALB/c mouse […] T cells by Phospho-Flow cytometry; type: cell-based; conditions: T-cell
[20] = Inhibition of JAK-mediated IL6-induced Stat3 phosphorylation in BALB/c mouse CD8+ T cells by Phospho-Flow cytometry; type: cell-based; conditions: T-cell
[21] = Inhibition of JAK-mediated IL15-induced Stat5 phosphorylation in BALB/c mouse CD8+ T cells by Phospho-Flow cytometry; type: cell-based; conditions: T-cell
[22] = Inhibition of JAK-mediated IL7-induced Stat5 phosphorylation in BALB/c mouse CD8+ T cells by Phospho-Flow cytometry; type: cell-based; conditions: T-cell
[23] = Inhibition of JAK-mediated IL4-induced Stat6 phosphorylation in BALB/c mouse CD8+ T cells by Phospho-Flow cytometry; type: cell-based; conditions: T-cell
[24] = Inhibition of JAK-mediated IL4-induced Stat5 phosphorylation in BALB/c mouse CD8+ T cells by Phospho-Flow cytometry; type: cell-based; conditions: T-cell
[25] = Inhibition of JAK-mediated IL6-induced Stat1 phosphorylation in BALB/c mouse CD11b-hi neutrophils by Phospho-Flow cytometry
[26] = Inhibition of JAK-mediated IL10-induced Stat3 phosphorylation in BALB/c mouse CD11b-hi neutrophils by Phospho-Flow cytometry
[27] = Inhibition of JAK-mediated interferon-gamma-induced Stat1 phosphorylation in BALB/c mouse CD11b-hi neutrophils by Phospho-Flow cytometry
[28] = Inhibition of JAK-mediated IL6-induced Stat3 phosphorylation in BALB/c mouse CD11b-hi neutrophils by Phospho-Flow cytometry
[29] = Inhibition of JAK-mediated IL15-induced Stat5 phosphorylation in BALB/c mouse CD11b-hi neutrophils by Phospho-Flow cytometry
[30] = Inhibition of JAK-mediated IL7-induced Stat5 phosphorylation in BALB/c mouse CD11b-hi neutrophils by Phospho-Flow cytometry
[31] = Inhibition of JAK-mediated IL4-induced Stat5 phosphorylation in BALB/c mouse CD11b-hi neutrophils by Phospho-Flow cytometry
[32] = Inhibition of JAK-mediated IL6-induced Stat1 phosphorylation in BALB/c mouse CD11b-int macrophages by Phospho-Flow cytometry
[33] = Inhibition of JAK-mediated IL10-induced Stat3 phosphorylation in BALB/c mouse CD11b-int macrophages by Phospho-Flow cytometry
[34] = Inhibition of JAK-mediated interferon-gamma-induced Stat1 phosphorylation in BALB/c mouse CD11b-int macrophages by Phospho-Flow cytometry
[35] = Inhibition of JAK-mediated IL6-induced Stat3 phosphorylation in BALB/c mouse CD11b-int macrophages by Phospho-Flow cytometry
[36] = Inhibition of JAK-mediated IL15-induced Stat5 phosphorylation in BALB/c mouse CD11b-int macrophages by Phospho-Flow cytometry
[37] = Inhibition of JAK-mediated IL7-induced Stat5 phosphorylation in BALB/c mouse CD11b-int macrophages by Phospho-Flow cytometry
[38] = Inhibition of JAK-mediated IL4-induced Stat6 phosphorylation in BALB/c mouse CD11b-int macrophages by Phospho-Flow cytometry

Measured: IC50

C=CC(=O)c1ccc2ccccc2c1
< 20 µM: all assays above
